Source: US11725012B2, “Imidazo[1,5-a]pyrazine derivatives as PI3K δ inhibitors” (priority 2016, dated 2023)

Key:
Format in all cases: biochemical
[1] = target: recombinant PI3K (p110δ/p85α) (Homo sapiens, UniProt O00329); test: PI3Kδ ADP-Glo kinase assay; settings: read-out: PI3Kδ Enzyme activity IC50
Procedure: Compounds disclosed herein were tested for inhibition of PI3Kδ kinase activity using commercial ADP-Glo™ Kinase Assay (Promega Corporation) and following the manufacture's instruction. Briefly, recombinant PI3K (p110δ/p85α) enzyme, lipid kinase substrate and a serial dilution of compounds disclosed herein were incubated for 0.5 hr at room temperature. ATP was added to initiate the kinase reaction. After incubation for 1 hr at room temperature, ADP-Glo™ reagent was added to terminate the kinase reaction and deplete the remaining ATP. After incubation for 1 hr at room temperature, kinase detection reagent was added to simultaneously convert ADP to ATP and allow the newly synthesized ATP to be measured using a luciferase/luciferin reaction. After incubation for 0.5 hr at room temperature, the luminescence generated was measured on a PHERAstar FS plate reader (BMG LABTECH), The residual enzyme activity in presence of increasing concentrations of compounds was calculated based on the luminescence. The IC50 for each compound was derived from fitting the data to the four-parameter logistic equation by Graphpad Prism software.

[2] = target: recombinant PI3K (p110α/p85α) (Homo sapiens, UniProt P42336); test: PI3Kα ADP-Glo kinase assay; settings: read-out: PI3Kα Enzyme activity IC50
recombinant PI3K (p110α/p85α), sequence (P42336 whole entry): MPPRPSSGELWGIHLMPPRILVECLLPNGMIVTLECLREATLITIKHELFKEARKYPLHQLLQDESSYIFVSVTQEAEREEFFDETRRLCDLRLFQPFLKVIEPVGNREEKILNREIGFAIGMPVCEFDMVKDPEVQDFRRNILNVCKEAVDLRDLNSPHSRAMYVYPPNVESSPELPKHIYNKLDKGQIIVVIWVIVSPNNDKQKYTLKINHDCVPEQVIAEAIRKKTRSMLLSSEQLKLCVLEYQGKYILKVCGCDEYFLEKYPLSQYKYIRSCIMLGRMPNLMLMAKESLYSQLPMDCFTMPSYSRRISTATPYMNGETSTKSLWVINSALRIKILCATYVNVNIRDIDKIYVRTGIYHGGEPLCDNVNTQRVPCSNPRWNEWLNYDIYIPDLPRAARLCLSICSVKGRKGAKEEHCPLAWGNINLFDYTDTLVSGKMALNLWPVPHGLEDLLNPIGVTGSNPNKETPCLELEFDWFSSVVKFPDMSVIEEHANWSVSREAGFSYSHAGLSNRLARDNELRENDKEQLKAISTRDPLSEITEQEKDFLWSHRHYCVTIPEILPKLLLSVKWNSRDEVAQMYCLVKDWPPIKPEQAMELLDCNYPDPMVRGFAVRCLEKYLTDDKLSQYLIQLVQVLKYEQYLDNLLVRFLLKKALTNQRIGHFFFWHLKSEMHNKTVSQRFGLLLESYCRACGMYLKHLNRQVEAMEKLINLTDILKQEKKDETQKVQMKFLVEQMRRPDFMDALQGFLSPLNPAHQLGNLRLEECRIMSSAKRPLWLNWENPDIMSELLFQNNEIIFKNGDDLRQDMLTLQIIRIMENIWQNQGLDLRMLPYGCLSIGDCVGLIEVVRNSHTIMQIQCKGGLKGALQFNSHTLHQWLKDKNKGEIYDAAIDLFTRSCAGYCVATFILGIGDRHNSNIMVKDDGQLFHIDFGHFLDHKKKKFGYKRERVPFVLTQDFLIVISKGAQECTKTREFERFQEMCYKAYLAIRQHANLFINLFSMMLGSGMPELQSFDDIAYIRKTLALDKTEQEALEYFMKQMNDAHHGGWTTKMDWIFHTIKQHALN
recombinant PI3K (p110α/p85α), sequence (P27986 whole entry partner): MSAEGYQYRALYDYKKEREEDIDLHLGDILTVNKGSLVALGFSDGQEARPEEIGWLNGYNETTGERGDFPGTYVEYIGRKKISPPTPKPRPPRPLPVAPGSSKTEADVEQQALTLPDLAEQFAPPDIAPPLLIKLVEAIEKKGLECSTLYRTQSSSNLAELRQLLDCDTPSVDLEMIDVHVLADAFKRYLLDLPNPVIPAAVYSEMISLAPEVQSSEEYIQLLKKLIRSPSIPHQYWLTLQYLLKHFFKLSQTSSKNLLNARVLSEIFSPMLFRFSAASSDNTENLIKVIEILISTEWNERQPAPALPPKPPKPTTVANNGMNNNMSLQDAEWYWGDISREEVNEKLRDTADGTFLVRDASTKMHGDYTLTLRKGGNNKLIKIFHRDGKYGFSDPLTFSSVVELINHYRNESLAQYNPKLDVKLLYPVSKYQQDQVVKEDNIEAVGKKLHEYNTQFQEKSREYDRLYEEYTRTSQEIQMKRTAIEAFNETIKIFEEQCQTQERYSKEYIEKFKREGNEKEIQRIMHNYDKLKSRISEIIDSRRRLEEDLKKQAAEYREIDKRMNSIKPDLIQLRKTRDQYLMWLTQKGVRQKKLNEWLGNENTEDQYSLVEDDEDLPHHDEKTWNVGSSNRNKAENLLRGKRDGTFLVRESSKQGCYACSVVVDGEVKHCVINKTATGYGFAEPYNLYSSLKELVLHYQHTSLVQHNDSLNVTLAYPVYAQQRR

[3] = target: PI3K (p110β/p85α) (Homo sapiens, UniProt P42338); test: PI3Kβ ADP-Glo kinase assay; settings: read-out: PI3Kβ Enzyme activity IC50
PI3K (p110β/p85α), sequence (P42338 whole entry): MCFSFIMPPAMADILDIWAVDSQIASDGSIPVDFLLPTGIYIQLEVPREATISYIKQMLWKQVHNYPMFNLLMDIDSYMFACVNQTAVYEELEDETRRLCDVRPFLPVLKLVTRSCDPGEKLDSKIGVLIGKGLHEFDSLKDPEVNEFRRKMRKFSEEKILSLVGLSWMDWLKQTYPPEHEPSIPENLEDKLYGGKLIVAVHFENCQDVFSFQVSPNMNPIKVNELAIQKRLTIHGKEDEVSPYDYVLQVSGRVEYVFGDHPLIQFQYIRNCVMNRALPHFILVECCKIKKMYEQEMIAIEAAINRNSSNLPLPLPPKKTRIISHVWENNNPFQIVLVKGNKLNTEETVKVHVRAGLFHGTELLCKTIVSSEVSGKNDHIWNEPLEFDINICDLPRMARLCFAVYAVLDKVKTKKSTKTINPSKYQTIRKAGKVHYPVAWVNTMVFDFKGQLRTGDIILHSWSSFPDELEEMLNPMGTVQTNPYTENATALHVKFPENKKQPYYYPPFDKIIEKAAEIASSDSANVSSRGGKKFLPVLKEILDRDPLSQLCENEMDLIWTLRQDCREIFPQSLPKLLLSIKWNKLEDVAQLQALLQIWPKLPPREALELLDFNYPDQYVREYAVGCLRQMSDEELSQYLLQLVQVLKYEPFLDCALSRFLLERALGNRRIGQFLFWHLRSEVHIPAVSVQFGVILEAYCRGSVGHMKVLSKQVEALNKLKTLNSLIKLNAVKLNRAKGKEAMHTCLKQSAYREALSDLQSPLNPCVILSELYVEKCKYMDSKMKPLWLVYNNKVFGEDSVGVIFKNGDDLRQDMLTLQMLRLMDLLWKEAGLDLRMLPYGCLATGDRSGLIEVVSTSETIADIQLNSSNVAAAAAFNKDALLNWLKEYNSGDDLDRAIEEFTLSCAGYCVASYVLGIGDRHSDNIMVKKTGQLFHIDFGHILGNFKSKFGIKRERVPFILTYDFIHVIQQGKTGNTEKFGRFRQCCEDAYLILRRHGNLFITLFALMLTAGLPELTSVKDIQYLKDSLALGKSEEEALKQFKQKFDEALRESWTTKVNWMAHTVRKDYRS
PI3K (p110β/p85α), sequence (P27986 whole entry partner): as the sequence (P27986 whole entry partner) above

[4] = target: PI3K (p110γ) (Homo sapiens, UniProt P48736); test: PI3Kγ ADP-Glo kinase assay; settings: read-out: PI3Kγ Enzyme activity IC50
PI3K (p110γ), sequence (P48736 whole entry): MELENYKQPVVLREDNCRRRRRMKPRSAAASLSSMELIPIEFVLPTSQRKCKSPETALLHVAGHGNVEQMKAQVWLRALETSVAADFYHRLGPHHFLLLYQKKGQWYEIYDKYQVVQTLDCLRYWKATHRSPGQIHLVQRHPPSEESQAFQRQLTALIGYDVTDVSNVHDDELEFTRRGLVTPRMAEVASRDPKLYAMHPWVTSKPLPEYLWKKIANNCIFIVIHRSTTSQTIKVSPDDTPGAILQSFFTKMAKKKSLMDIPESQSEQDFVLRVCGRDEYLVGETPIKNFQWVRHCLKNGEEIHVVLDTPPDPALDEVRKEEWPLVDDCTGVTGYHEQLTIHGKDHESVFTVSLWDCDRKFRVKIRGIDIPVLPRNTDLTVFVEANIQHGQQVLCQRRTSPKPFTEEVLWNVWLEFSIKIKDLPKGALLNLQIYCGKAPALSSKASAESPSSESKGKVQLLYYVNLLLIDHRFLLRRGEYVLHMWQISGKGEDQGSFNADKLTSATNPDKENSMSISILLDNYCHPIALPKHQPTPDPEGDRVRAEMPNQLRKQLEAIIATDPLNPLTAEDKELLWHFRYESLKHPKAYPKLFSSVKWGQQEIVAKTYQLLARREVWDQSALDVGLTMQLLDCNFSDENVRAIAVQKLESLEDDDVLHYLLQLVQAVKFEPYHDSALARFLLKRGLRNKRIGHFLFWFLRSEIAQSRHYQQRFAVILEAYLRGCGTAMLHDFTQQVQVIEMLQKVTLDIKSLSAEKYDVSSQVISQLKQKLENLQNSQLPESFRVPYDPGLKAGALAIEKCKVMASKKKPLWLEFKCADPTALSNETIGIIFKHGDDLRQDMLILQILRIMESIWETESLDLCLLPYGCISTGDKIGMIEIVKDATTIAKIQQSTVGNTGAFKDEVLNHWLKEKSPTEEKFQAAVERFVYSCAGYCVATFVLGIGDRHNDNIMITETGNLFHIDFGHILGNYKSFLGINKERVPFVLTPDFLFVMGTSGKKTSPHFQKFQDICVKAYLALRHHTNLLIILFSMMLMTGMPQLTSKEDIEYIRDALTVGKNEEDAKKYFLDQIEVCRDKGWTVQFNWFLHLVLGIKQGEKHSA

recombinant PI3K (p110δ/p85α), sequence (O00329 whole entry): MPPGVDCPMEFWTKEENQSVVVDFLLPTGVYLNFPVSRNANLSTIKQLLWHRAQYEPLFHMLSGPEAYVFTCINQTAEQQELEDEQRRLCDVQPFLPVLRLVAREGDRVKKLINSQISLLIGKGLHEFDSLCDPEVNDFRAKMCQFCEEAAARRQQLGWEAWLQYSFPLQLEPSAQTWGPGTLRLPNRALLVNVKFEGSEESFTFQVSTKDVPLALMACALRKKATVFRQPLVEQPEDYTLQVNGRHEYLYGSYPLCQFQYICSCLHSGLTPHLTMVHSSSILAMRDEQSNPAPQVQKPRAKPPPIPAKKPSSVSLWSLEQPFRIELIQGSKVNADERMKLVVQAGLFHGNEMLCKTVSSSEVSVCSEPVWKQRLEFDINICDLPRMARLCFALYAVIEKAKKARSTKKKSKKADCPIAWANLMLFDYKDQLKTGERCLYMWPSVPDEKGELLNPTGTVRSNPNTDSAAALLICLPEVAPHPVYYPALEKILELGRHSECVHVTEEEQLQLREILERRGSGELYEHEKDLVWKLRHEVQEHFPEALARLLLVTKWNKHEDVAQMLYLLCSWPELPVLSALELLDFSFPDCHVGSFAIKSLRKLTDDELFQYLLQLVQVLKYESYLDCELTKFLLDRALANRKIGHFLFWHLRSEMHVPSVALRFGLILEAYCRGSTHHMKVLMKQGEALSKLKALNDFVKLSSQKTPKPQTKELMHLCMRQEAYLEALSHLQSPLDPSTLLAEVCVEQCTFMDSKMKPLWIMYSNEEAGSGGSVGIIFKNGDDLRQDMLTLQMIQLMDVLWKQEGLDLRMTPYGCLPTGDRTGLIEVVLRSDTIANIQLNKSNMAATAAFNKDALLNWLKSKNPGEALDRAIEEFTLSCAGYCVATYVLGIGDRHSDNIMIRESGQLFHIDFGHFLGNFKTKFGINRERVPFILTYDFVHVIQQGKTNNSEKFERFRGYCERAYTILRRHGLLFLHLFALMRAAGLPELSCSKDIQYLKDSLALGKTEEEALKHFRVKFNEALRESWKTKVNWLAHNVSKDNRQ
recombinant PI3K (p110δ/p85α), sequence (P27986 whole entry partner): as the sequence (P27986 whole entry partner) above

SMILES | IC50 [1] | IC50 [2] | IC50 [3] | IC50 [4]
CCOc1c(C(C)c2nc(Cl)c3c(N)nccn23)cc(Cl)c(C)c1-c1ccc(OCCOC)nc1 (stereo not shown) [Compound 31, 1-chloro-3-(1-(5-chloro-2-ethoxy-3-(6-(2-methoxyethoxy)pyridin-3-yl)-4-methylphenyl)ethyl)imidazo[1,5-a]pyrazin-8-amine] | 2.5 nM | 2200 nM | 620 nM | 430 nM
CCOc1c(C(C)c2nc(C)c3c(N)nccn23)cc(Cl)c(C)c1-c1ccc(C(F)(F)F)nc1 (stereo not shown) [Compound 32, 3-(1-(5-chloro-2-ethoxy-4-methyl-3-(6-(trifluoromethyl)pyridin-3-yl)phenyl)ethyl)-1-methylimidazo[1,5-a]pyrazin-8-amine] | 8.5 nM | 7400 nM | 3500 nM | 2100 nM
CCOc1c(C(C)c2nc(Cl)c3c(N)nccn23)cc(F)c(Cl)c1-c1ccc(C(F)(F)F)nc1 (stereo not shown) [Compound 33, 1-chloro-3-(1-(4-chloro-2-ethoxy-5-fluoro-3-(6-(trifluoromethyl)pyridin-3-yl)phenyl)ethyl)imidazo[1,5-a]pyrazin-8-amine] | 5.7 nM | 1800 nM | 1800 nM | 750 nM
CC(C)Oc1c(C(C)c2nc(Cl)c3c(N)nccn23)cc(F)c(Cl)c1-c1ccc(C(F)(F)F)nc1 (stereo not shown) [Compound 35, 1-chloro-3-(1-(4-chloro-5-fluoro-2-isopropoxy-3-(6-(trifluoromethyl)pyridin-3-yl)phenyl)ethyl)imidazo[1,5-a]pyrazin-8-amine] | 11 nM | 23000 nM | 79000 nM | 5900 nM
CCOc1c(C(C)c2nc(Cl)c3c(N)nccn23)cc(Cl)c(Cl)c1-c1ccc(C(F)(F)F)nc1 (stereo not shown) [Compound 36, 1-chloro-3-(1-(4,5-dichloro-2-ethoxy-3-(6-(trifluoromethyl)pyridin-3-yl)phenyl)ethyl)imidazo[1,5-a]pyrazin-8-amine] | 2.2 nM | 1300 nM | 580 nM | 730 nM
CC(C)Oc1c(C(C)c2nc(Cl)c3c(N)nccn23)cc(Cl)c(Cl)c1-c1ccc(C(F)(F)F)nc1 (stereo not shown) [Compound 37, 1-chloro-3-(1-(4,5-dichloro-2-isopropoxy-3-(6-(trifluoromethyl)pyridin-3-yl)phenyl)ethyl)imidazo[1,5-a]pyrazin-amine] | 4.2 nM | 11000 nM | 1900 nM | 900 nM
Cc1c(Cl)cc(C(C)c2nc(Br)c3c(N)nccn23)c(OC(C)C)c1-c1ccc(C(F)(F)F)nc1 (stereo not shown) [Compound 38, 1-bromo-3-(1-(5-chloro-2-isopropoxy-4-methyl-3-(6-(trifluoromethyl)pyridin-3-yl)phenyl)ethyl)imidazo[1,5-a]pyrazin-8-amine] | 19 nM | > 200000 nM | 30000 nM | 2800 nM
Cc1c(Cl)cc([C@H](C)c2nc(Br)c3c(N)nccn23)c(OC(C)C)c1-c1ccc(C(F)(F)F)nc1 [Compound 38A] | 5.4 nM | > 200000 nM | 28000 nM | 740 nM
CCOc1c(C(C)c2nc(Br)c3c(N)nccn23)cc(Cl)c(C)c1-c1cncc(C(F)(F)F)c1 (stereo not shown) [Compound 39, 1-bromo-3-(1-(5-chloro-2-ethoxy-4-methyl-3-(5-(trifluoromethyl)pyridin-3-yl)phenyl)ethyl)imidazo[1,5-a]pyrazin-8-amine] | 5.7 nM | 3200 nM | 2000 nM | 1600 nM
CC(C)Oc1c(C(C)c2nc(Cl)c3c(N)nccn23)cc(Cl)c(F)c1-c1ccc(C(F)(F)F)nc1 (stereo not shown) [Compound 40, 1-chloro-3-(1-(5-chloro-4-fluoro-2-isopropoxy-3-(6-(trifluoromethyl)pyridin-3-yl)phenyl)ethyl)imidazo[1,5-a]pyrazin-8-amine] | 5.5 nM | > 50000 nM | > 50000 nM | > 50000 nM
CCOc1c(C(C)c2nc(Cl)c3c(N)nccn23)cc(Cl)c(F)c1-c1ccc(C(F)(F)F)nc1 (stereo not shown) [Compound 41, 1-chloro-3-(1-(5-chloro-2-ethoxy-4-fluoro-3-(6-(trifluoromethyl)pyridin-3-yl)phenyl)ethyl)imidazo[1,5-a]pyrazin-8-amine] | 3.2 nM | 2700 nM | 3100 nM | 2100 nM
CCOc1c([C@H](C)c2nc(Cl)c3c(N)nccn23)cc(Cl)c(F)c1-c1ccc(C(F)(F)F)nc1 [Compound 41A] | 2.1 nM | 2200 nM | 1200 nM | 730 nM
CCCOc1c(C(C)c2nc(Cl)c3c(N)nccn23)cc(Cl)c(F)c1-c1ccc(C(F)(F)F)nc1 (stereo not shown) [Compound 42, 1-chloro-3-(1-(5-chloro-4-fluoro-2-propoxy-3-(6-(trifluoromethyl)pyridin-3-yl)phenyl)ethyl)imidazo[1,5-a]pyrazin-8-amine] | 7.4 nM | > 50000 nM | > 50000 nM | 1600 nM
CCCOc1c([C@H](C)c2nc(Cl)c3c(N)nccn23)cc(Cl)c(F)c1-c1ccc(C(F)(F)F)nc1 [Compound 42A] | 4.1 nM | 26000 nM | 2200 nM | 810 nM
CCOc1c(C(C)c2nc(Cl)c3c(N)nccn23)cc(Cl)c(F)c1-c1ccc(C(F)(F)F)nc1OC (stereo not shown) [Compound 43, 1-chloro-3-(1-(5-chloro-2-ethoxy-4-fluoro-3-(2-methoxy-6-(trifluoromethyl)pyridin-3-yl)phenyl)ethyl)imidazo[1,5-al]pyrazin-8-amine] | 59 nM | > 50000 nM | > 50000 nM | > 50000 nM
CCOc1c([C@H](C)c2nc(Cl)c3c(N)nccn23)cc(Cl)c(F)c1-c1ccc(C(F)(F)F)nc1OC [Compound 43A] | 28 nM | > 50000 nM | > 50000 nM | > 50000 nM
CCOc1c(C(C)c2nc(Cl)c3c(N)nccn23)cc(Cl)c(C)c1-c1ccc(OC)cc1 (stereo not shown) [Compound 45, 1-chloro-3-(1-(5-chloro-2-ethoxy-4′-methoxy-6-methyl-[1,1′-biphenyl]-3-yl)ethyl)imidazo[1,5-a]pyrazin-8-amine] | 17 nM | 1100 nM | 930 nM | 1200 nM
CCOc1c(C(C)c2nc(Cl)c3c(N)nccn23)cc(Cl)c(C)c1C1CNC(=O)C1 (stereo not shown) [Compound 46, 4-(3-(1-(8-amino-1-chloroimidazo[1,5-a]pyrazin-3-yl)ethyl)-5-chloro-2-ethoxy-6-methylphenyl)pyrrolidin-2-one] | 0.7 nM | 5600 nM | 470 nM | 920 nM
CC(C)Oc1c(C(C)c2nc(Cl)c3c(N)nccn23)cc(Cl)c(F)c1C1CNC(=O)C1 (stereo not shown) [Compound 48, 4-(3-(1-(8-amino-1-chloroimidazo[1,5-a]pyrazin-3-yl)ethyl)-5-chloro-6-fluoro-2-isopropoxyphenyl)pyrrolidin-2-one] | 0.42 nM | 540 nM | 580 nM | 530 nM
CCOc1cc(C)c(Cl)cc1C(C)c1nc(Br)c2c(N)nccn12 (stereo not shown) [Compound 50, 1-bromo-3-(1-(5-chloro-2-ethoxy-4-methylphenyl)ethyl)imidazo[1,5-a]pyrazin-8-amine] | 17 nM | 36000 nM | 670 nM | 2600 nM
CCOc1c(C(C)c2nc(Cl)c3c(N)nccn23)cc(Cl)c(C)c1N1CCOCC1 (stereo not shown) [Compound 51, 1-chloro-3-(1-(5-chloro-2-ethoxy-4-methyl-3-morpholinophenyl)ethyl)imidazo[1,5-a]pyrazin-8-amine] | 1.6 nM | 2900 nM | 2700 nM | 1700 nM
CC(c1cc(Cl)c(C#N)c(=O)n1-c1ccccc1)n1cc(Br)c2c(N)ncnc21 (stereo not shown) [Compound 54, 6-(1-(4-amino-5-bromo-7H-pyrrolo[2,3-d]pyrimidin-7-yl)ethyl)-4-chloro-2-oxo-1-phenyl-1,2-dihydropyridine-3-carbonitrile] | 15 nM | 29000 nM | 1700 nM | 4200 nM
COc1cc(C(C)n2cc(Br)c3c(N)ncnc32)n(-c2ccccc2)c(=O)c1C#N (stereo not shown) [Compound 57, 6-(1-(4-amino-5-bromo-7H-pyrrolo[2,3-d]pyrimidin-7-yl)ethyl)-4-methoxy-2-oxo-1-phenyl-1,2-dihydropyridine-3-carbonitrile] | 20 nM | 83000 nM | 1240 nM | 1900 nM
Cc1nc([C@@H](C)c2cc(Cl)c(F)c(-c3ccc(C(F)(F)F)nc3)c2OC(C)C)n2ccnc(N)c12 [Compound 58, (S)-3-(1-(5-chloro-4-fluoro-2-isopropoxy-3-(6-(trifluoromethyl)pyridin-3-yl)phenyl)ethyl)-1-methylimidazo[1,5-a]pyrazin-8-amine] | 5.6 nM | 14000 nM | 17000 nM | 13000 nM
Cc1nc(C(C)c2cc(Cl)c(F)c(-c3ccc(C#N)nc3)c2OC(C)C)n2ccnc(N)c12 (stereo not shown) [Compound 59, 5-(3-(1-(8-amino-1-methylimidazo[1,5-a]pyrazin-3-yl)ethyl)-5-chloro-6-fluoro-2-isopropoxyphenyl)picolinonitrile] | 2.5 nM | 10000 nM | 3500 nM | 6300 nM
